We go through three molecules from patent US11446226B2, “Composition for preventing or improving intrinsic aging comprising paeoniflorin or albiflorin” (Amorepacific Corporation, priority 2017, dated 2022).

In test [1] the test system is MMP-1. Description: MMP-1 inhibition effect in fibroblasts, stimulation source TNF-α (MMP-1 ELISA normalized to CCK8 cell viability). Type of test: cell-based. Conditions: TNF-α 10 ng/mL; for MMP-1 level with respect to the negative control group treated with TNF-α as 100: 0.1 or 1 ppm; for Normalized MMP-1 level relative to TNF-α control (100%): 48 hours. As for the experimental part:
Fibroblasts acquired from ATCC were transferred to a medium containing 10% (v/v) FBS and were cultured at 37° C. for 24 hours under the condition of 5% CO2. After replacing the medium with a serum-free medium, the cells were cultured for at least 6 hours. Then, after treating with 10 ng/mL TNF-α, as an intrinsic inflammatory factor causing intrinsic aging, and then with 0.1 ppm or 1 ppm paeoniflorin (Sigma-Aldrich), the cells were cultured for 48 hours. 48 hours later, the culture was separated partly and MMP-1 ELISA was conducted according to a method commonly employed in the art. A negative control group was not treated with paeoniflorin, and a positive control group was treated with 2 μM ATRA (all-trans retinoic acid) instead of the paeoniflorin. Subsequently, the remaining culture was separated partly and cell viability was measured by CCK8 (cell count kit 8) assay according to a method commonly employed in the art. The result was normalized to the result of the MMP-1 ELISA. Meanwhile, the MMP-1 inhibition effect by albiflorin was investigated in the same manner as the MMP-1 inhibition effect by paeoniflorin, except that the cells were treated with 0.1 ppm or 1 ppm albiflorin (Wako Chemical) instead of the 0.1 ppm or 1 ppm paeoniflorin. The MMP-1 inhibition effect by a combination of paeoniflorin and albiflorin was investigated in the same manner as the MMP-1 inhibition effect by paeoniflorin, except that the cells were treated with a 10:1 mixture of paeoniflorin and albiflorin (P+A) at 0.1+0.01 ppm or 1+0.1 ppm instead of the 0.1 ppm or 1 ppm paeoniflorin.

The subject of test [2] is MMP-1. Description: MMP-1 inhibition effect in fibroblasts, stimulation source UV (UVB; MMP-1 ELISA normalized to CCK8 cell viability). Type of test: cell-based. Conditions: 48 hours. As for the experimental part:
Fibroblasts acquired from ATCC were transferred to a medium containing 10% (v/v) FBS and were cultured at 37° C. for 24 hours under the condition of 5% CO2. After replacing the medium with a serum-free medium, the cells were cultured for at least 6 hours. Then, after treating with 30 mJ/cm^2 UVB, as an extrinsic stimulating factor causing extrinsic aging, and then with 0.1 ppm or 1 ppm paeoniflorin (Sigma-Aldrich), the cells were cultured for 48 hours. 48 hours later, the culture was separated partly and MMP-1 ELISA was conducted according to a method commonly employed in the art. A negative control group was not treated with paeoniflorin, and a positive control group was treated with 2 μM ATRA (all-trans retinoic acid) instead of the paeoniflorin.
Subsequently, the remaining culture was separated partly and cell viability was measured by CCK8 (cell count kit 8) assay according to a method commonly employed in the art. The result was normalized to the result of the MMP-1 ELISA.
Meanwhile, the MMP-1 inhibition effect by albiflorin was investigated in the same manner as the MMP-1 inhibition effect by paeoniflorin, except that the cells were treated with 0.1 ppm or 1 ppm albiflorin (Wako Chemical) instead of the 0.1 ppm or 1 ppm paeoniflorin.

Where [3] appears, read: 0.1 ppm, with respect to negative control.
[4] abbreviates: 1 ppm, with respect to negative control.
[5] abbreviates: UVB 30 mJ/cm^2, 0.1 ppm, with respect to negative control.
Setting [6] is: UVB 30 mJ/cm^2, 1 ppm, with respect to negative control.

Molecules are shown by their SMILES.

In the case of `C[C@]12C[C@@H](O)[C@@H]3C[C@@]1(O[C@@H]1O[C@H](CO)[C@@H](O)[C@H](O)[C@H]1O)[C@]3(COC(=O)c1ccccc1)C(=O)O2` [Albiflorin, albiflorin], the “MMP-1 level with respect to the negative control group treated with TNF-α as 100” value in the test on MMP-1 [1] was “about 60%”. Also, the figures for the “Normalized MMP-1 level relative to TNF-α control (100%)” value in the test on MMP-1 [1] (setting [3]) and in the test on MMP-1 [1] (setting [4]) were 63.25% and 59.44%, respectively. Besides, the figures for the “Normalized MMP-1 Inhibition (%)” value in the test with MMP-1 [2] (setting [5]) and with MMP-1 [2] (setting [6]) were −5.29% and −10.96%, respectively.

For `C[C@@]12C[C@@]3(O)O[C@@H](O1)[C@]1(COC(=O)c4ccccc4)[C@H]3C[C@@]12O[C@@H]1O[C@H](CO)[C@@H](O)[C@H](O)[C@H]1O` [Paeoniflorin, paeoniflorin], the “MMP-1 level with respect to the negative control group treated with TNF-α as 100” value in the test with MMP-1 [1] is “about 60%”. For the same molecule, the “Normalized MMP-1 level relative to TNF-α control (100%)” value came out at 69.34% in the test with MMP-1 [1] (setting [3]) and 66.49% in the test with MMP-1 [1] (setting [4]). In addition, the entries for the “Normalized MMP-1 Inhibition (%)” value with MMP-1 [2] (setting [5]) and with MMP-1 [2] (setting [6]) were −3.27% and −22.03%, respectively.

In the case of `CC1=C(/C=C/C(C)=C/C=C/C(C)=C/C(=O)O)C(C)(C)CCC1` [Positive control, all-trans retinoic acid, reference compound], the “Normalized MMP-1 level relative to TNF-α control (100%)” value in the test with MMP-1 [1] (positive control 2 μM ATRA) is 48.75%. Further, the “Normalized MMP-1 Inhibition (%)” value in the test with MMP-1 [2] (UVB 30 mJ/cm^2, positive control 2 μM ATRA) came out at 25.72%.
